Assay results reported in US9758492B2, “IDO inhibitors” (Bristol-Myers Squibb Company, priority 2013, dated 2017).

Columns and labels:
Human IDO1 = target: T1, Human IDO1 (Homo sapiens, UniProt P14902); assay: IDO Kynurenine Assay with Human IDO1/HEK293 Cells; type: cell-based; details: read-out: HEK human IDO-1 (IC50)
T1 construct: expressed in transfected cells; host or cells: HEK293
How it was run: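 HEK293 cells stably expressing human IDO1, in phenol red-free RPMI/10% FBS, exposed to compound for 20 h at 37 °C. Stopped with 0.2% TCA (50 °C, 30 min); kynurenine in supernatant detected with Ehrlich reagent, absorbance 490 nm.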

IDO = IDO (Homo sapiens, UniProt P14902); assay: LLE_IDO_ABS_DR (IDO assay)
IDO, sequence (P14902 whole entry): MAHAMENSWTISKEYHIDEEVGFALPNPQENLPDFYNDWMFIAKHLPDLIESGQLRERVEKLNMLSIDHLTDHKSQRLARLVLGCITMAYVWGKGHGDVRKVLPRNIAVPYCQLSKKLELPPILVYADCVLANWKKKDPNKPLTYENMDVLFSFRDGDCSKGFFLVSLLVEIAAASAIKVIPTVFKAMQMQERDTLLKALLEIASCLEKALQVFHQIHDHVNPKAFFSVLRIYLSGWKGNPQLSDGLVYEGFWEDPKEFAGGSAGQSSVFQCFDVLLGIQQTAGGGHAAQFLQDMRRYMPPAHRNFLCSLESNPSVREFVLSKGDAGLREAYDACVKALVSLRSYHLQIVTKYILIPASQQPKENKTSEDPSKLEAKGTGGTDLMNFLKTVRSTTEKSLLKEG

T1 sequence (P14902 whole entry): as above

SMILES	IC50 (Human IDO1) [nM]	IC50 (IDO) [nM]
CC(C)CN(Cc1ccccc1)c1ccc(-c2ccccc2-c2nnn[nH]2)cc1NC(=O)Nc1ccc(OC(F)(F)F)cc1 [Example 290, 1-(4-(Benzyl(isobutyl)amino)-2′-(1H-tetrazol-5-yl)-[1,1′-biphenyl]-3-yl)-3-(4-(trifluoromethoxy)phenyl)urea]	50	30
Cc1ccc(NC(=O)Nc2cc(-c3cc(F)ccc3C(=O)O)ccc2N2CCCc3ccccc32)cc1 [Example 373, 4′-(3,4-Dihydroquinolin-1(2H)-yl)-5-fluoro-3′-(3-(p-tolyl)ureido)-[1,1′-biphenyl]-2-carboxylic acid]	4000	3340
O=C(Nc1ccc(C2CC2)cc1)Nc1cc(-c2ccccc2-c2nnn[nH]2)ccc1N(CCC(F)(F)F)Cc1ccc(F)cc1C(F)(F)F [Example 299, 1-(4-cyclopropylphenyl)-3-(4-((4-fluoro-2-(trifluoromethyl)benzyl) (3,3,3-trifluoropropyl)amino)-2′-(1H-tetrazol-5-yl)-[1,1′-biphenyl]-3-yl)urea]	50	20
CC(C)CN(Cc1ccccc1)c1ccc(-c2ccccc2-c2nnn[nH]2)cc1NC(=O)Nc1ccc(C2CC2)cc1 [Example 291, 1-(4-(Benzyl(isobutyl)amino)-2′-(1H-tetrazol-5-yl)-[1,1′-biphenyl]-3-yl)-3-(4-cyclopropylphenyl)urea]	1830	90
Cc1ccc(NC(=O)Nc2cc(-c3ccccc3C(=O)O)cc(Cl)c2N(CC(C)C)CC(C)C)cc1 [Example 40, 3′-Chloro-4′-(diisobutylamino)-5′-(3-p-tolylureido)biphenyl-2-carboxylic acid]	10	3.79
Cc1ccc(NC(=O)Nc2cc(-c3ccccc3-c3nnn[nH]3)ccc2N(CCC(F)(F)F)Cc2cccc(Cl)c2)cc1 [Example 13, 1-(4-((3-Chlorobenzyl)(3,3,3-trifluoropropyl)amino)-2′-(1H-tetrazol-5-yl)-[1,1′-biphenyl]-3-yl)-3-(p-tolyl)urea]	60	30
COCCN(Cc1ccc(Cl)cc1)c1ccc(-c2cc(F)ccc2C(=O)O)cc1NC(=O)Nc1ccc(C)cc1 [Example 193, 4′-((4-chlorobenzyl)(2-methoxyethyl)amino)-5-fluoro-3′-(3-(p-tolyl)ureido)-[1,1′-biphenyl]-2-carboxylic acid]	70	30
Cc1ccc(NC(=O)Nc2cc(-c3ccccc3-c3nnn[nH]3)ccc2N(CCC(F)(F)F)Cc2ccc(Cl)cc2)cc1 [Example 16]	20	10
O=C(Nc1ccc(F)cc1F)Nc1cc(-c2ccccc2-c2nnn[nH]2)ccc1N(CCc1ccccc1)CCC(F)(F)F [Example 332, 1-(2,4-difluorophenyl)-3-(4-(phenethyl(3,3,3-trifluoropropyl)amino)-2′-(1H-tetrazol-5-yl)-[1,1′-biphenyl]-3-yl) urea]	110	80
O=C(Nc1ccc(C2CC2)c(F)c1)Nc1cc(-c2ccccc2-c2nnn[nH]2)ccc1N(CCC(F)(F)F)Cc1ccc(F)cc1C(F)(F)F [Example 352, 1-(4-cyclopropyl-3-fluorophenyl)-3-(4-((4-fluoro-2-(trifluoro-methyl)benzyl) (3,3,3-trifluoropropyl)amino)-2′-(1H-tetrazol-5-yl)-[1,1′-biphenyl]-3-yl)urea]	220	90
CC(C)CN(CC1CC(F)(F)C1)c1ccc(-c2ccccc2-c2nnn[nH]2)cc1NC(=O)Nc1cc(C(C)C)no1 [Example 384]	1890	1640
Cc1ccc(NC(=O)Nc2cc(-c3cc(F)ccc3C(=O)O)cc(Cl)c2N(CC(C)C)CC(C)C)cc1 [Example 41, 3′-Chloro-4′-(diisobutylamino)-5-fluoro-5′-(3-p-tolylureido)biphenyl-2-carboxylic acid]	6.31	1.78
O=C(Nc1ccc(C2CC2)cc1)Nc1cc(-c2ccccc2-c2nnn[nH]2)ccc1N(CCCC(F)(F)F)Cc1ccc(Cl)cc1 [Example 349, 1-(4-((4-chlorobenzyl)(4,4,4-trifluorobutyl)amino)-2′-(1H-tetrazol-5-yl)-[1,1′-biphenyl]-3-yl)-3-(4-cyclopropylphenyl)urea]	130	7.49
Cc1ccc(NC(=O)Nc2cc(-c3cc(F)ccc3C(=O)O)ccc2N(CC(C)C)CC2CC(F)(F)C2)cc1 [Example 380]	70	50
Cc1ccc(NC(=O)Nc2cc(-c3ccccc3-c3nnn[nH]3)ccc2N(CCC(F)(F)F)Cc2ccc(F)cc2C(F)(F)F)cc1 [Example 502, 1-(4-((4-fluoro-2-(trifluoromethyl)benzyl)(3,3,3-trifluoropropyl)amino)-2′-(1H-tetrazol-5-yl)-[1,1′-biphenyl]-3-yl)-3-(p-tolyl)urea]	20	5.01
Cc1ccc(NC(=O)Nc2cc(-c3ccccc3C(=O)O)ccc2N(CC(C)C)C2CCC(F)(F)CC2)cc1 [Example 512, 4′-((4,4-Difluorocyclohexyl)(isobutyl)amino)-3′-(3-(p-tolyl)ureido)-[1,1′-biphenyl]-2-carboxylic acid]	50	2.88
C=C(C)CN(CC(F)(F)F)c1ccc(-c2ccccc2-c2nnn[nH]2)cc1NC(=O)Nc1ccc(C)cc1 [Example 472]	9.13	10
O=C(Nc1ccc(C2CC2)cc1)Nc1cc(-c2ccccc2-c2nnn[nH]2)ccc1N(CCC(F)(F)F)Cc1ccc(OC(F)(F)F)cc1 [Example 302, 1-(2′-(1H-tetrazol-5-yl)-4-((4-(trifluoromethoxy)benzyl)(3,3,3-trifluoropropyl)amino)-[1,1′-biphenyl]-3-yl)-3-(4-cyclopropylphenyl)urea]	5.53	3.26
Cc1ccc(NC(=O)Nc2cc(-c3ccccc3C(=O)O)ccc2N(CC(C)C)C2CCOCC2)cc1 [Example 378]	70	60
C=CC(c1ccccc1)c1cc(-c2ccccc2-c2nnn[nH]2)cc(NC(=O)Nc2ccccc2F)c1NCC(C)C (stereo not shown) [Example 357, 1-(2-fluorophenyl)-3-(4-(isobutylamino)-5-(1-phenylallyl)-2′-(1H-tetrazol-5-yl)-[1,1′-biphenyl]-3-yl)urea]	320	40
Cc1ccc(NC(=O)Nc2cc(-c3ccccc3-c3nnn[nH]3)ccc2N2CCC(c3ccccc3)C2)cc1 (racemic) [Example 367, (±)-1-(4-(3-Phenylpyrrolidin-1-yl)-2′-(1H-tetrazol-5-yl)-[1,1′-biphenyl]-3-yl)-3-(p-tolyl)urea]	10	20
Cc1ccc(NC(=O)Nc2cc(-c3ccccc3-c3nnn[nH]3)ccc2N(CCC(F)(F)F)Cc2ccccc2Cl)cc1 [Example 19, 1-(4-((2-Chlorobenzyl)(3,3,3-trifluoropropyl)amino)-2′-(1H-tetrazol-5-yl)-[1,1′-biphenyl]-3-yl)-3-(p-tolyl)urea]	40	20
O=C(Nc1ccc(F)cc1F)Nc1cc(-c2ccccc2-c2nnn[nH]2)ccc1N(CCCC(F)(F)F)Cc1ccc(Cl)cc1 [Example 319, 1-(4-((4-chlorobenzyl)(4,4,4-trifluorobutyl)amino)-2′-(1H-tetrazol-5-yl)-[1,1′-biphenyl]-3-yl)-3-(2,4-difluorophenyl) urea]	20	20
CC(C)CN(CC(C)C)c1ccc(-c2ccccc2-c2nnn[nH]2)cc1NC(=O)Nc1ccc(Br)cc1F [Example 38, 1-(4-Bromo-2-fluorophenyl)-3-(4-(diisobutylamino)-2′-(1H-tetrazol-5-yl)biphenyl-3-yl)urea]	1.78	1.84
O=C(Nc1ccc(F)cc1F)Nc1cc(-c2ccccc2-c2nnn[nH]2)ccc1N(CCC(F)(F)F)Cc1ccccn1 [Example 344, 1-(2,4-difluorophenyl)-3-(4-((pyridin-2-ylmethyl)(3,3,3-trifluoropropyl)amino)-2′-(1H-tetrazol-5-yl)-[1,1′-biphenyl]-3-yl) urea]	50	30
Cc1ccc(NC(=O)Nc2cc(-c3cccc(F)c3C(=O)O)ccc2N(CC(C)C)CC(C)C)cc1 [Example 150, 4′-(diisobutylamino)-3-fluoro-3′-(3-p-tolylureido)biphenyl-2-carboxylic acid]	60	40
C=CC(c1ccccc1)c1cc(-c2ccccc2-c2nnn[nH]2)cc(NC(=O)Nc2ccc(C)cc2)c1NCC(C)C (stereo not shown) [Example 358, 1-(4-(isobutylamino)-5-(1-phenylallyl)-2′-(1H-tetrazol-5-yl)-[1,1′-biphenyl]-3-yl)-3-(p-tolyl)urea]	350	20
Cc1ccc(NC(=O)Nc2cc(-c3ccccc3-c3nnn[nH]3)cc(Cl)c2N(CC(C)C)CC(C)C)cc1 [Example 39, 1-(5-Chloro-4-(diisobutylamino)-2′-(1H-tetrazol-5-yl)biphenyl-3-yl)-3-p-tolylurea]	2.37	1
O=C(Nc1ccc(C(F)(F)F)cc1F)Nc1cc(-c2ccccc2-c2nnn[nH]2)ccc1N1CCC(c2ccccc2)C1 (racemic) [Example 370, (±)-1-(2-Fluoro-4-(trifluoromethyl)phenyl)-3-(4-(3-phenylpyrrolidin-1-yl)-2′-(1H-tetrazol-5-yl)-[1,1′-biphenyl]-3-yl)urea]	70	50
